Data as given in US10828266B2, “Topical regional neuro-affective therapy with caryophyllene” (Afgin Pharma, LLC, priority 2016, dated 2020).

Tests used:
human patients [1] = experiment: Inventor's observation of onset and duration of therapeutic effect after administration of caryophyllene at the back of the neck; type: in vivo
Experimental: The inventor has observed rapid therapeutic onset of action, generally, less than 10 to 15 minutes administration of caryophyllene at the back of the neck, with maximal benefit noted well within 30 minutes. In certain embodiments, a prolonged therapeutic effect has been noted, e.g., about 4 to about 12 hours or more, depending on condition and severity of the condition being treated.

CB2 receptors = CB2 receptors (Homo sapiens, UniProt P34972); settings: background statement; cited from earlier work
[2] = target: cannabinoid receptor type-1 (CB1) (Homo sapiens, UniProt P21554); settings: centrally expressed receptor; background statement; cited from earlier work
human patients [3] = experiment: Topical Cari-Derm (3% caryophyllene) on the back of the neck of human patients, case series of Table 1; type: in vivo
Experimental: (§1) The following patients were treated with a topical caryophyllene formulation (referred to in Table 1 as “Cari-Derm”, which is a topical 3% caryophyllene formulation) administered on the back of the neck on human patients, as more specifically described below in Table 1. The 3% Cari-Derm formulation contained approximately 30 mg of caryophyllene in a unit dose (1 gram).

human patients [4] = experiment: Response to earlier or current medication as given in the patient history of Table 1; type: in vivo; settings: patient 11, autism and seizures with poor vision and focus
Experimental: as §1

Sequence of CB2 receptors (P34972 whole entry): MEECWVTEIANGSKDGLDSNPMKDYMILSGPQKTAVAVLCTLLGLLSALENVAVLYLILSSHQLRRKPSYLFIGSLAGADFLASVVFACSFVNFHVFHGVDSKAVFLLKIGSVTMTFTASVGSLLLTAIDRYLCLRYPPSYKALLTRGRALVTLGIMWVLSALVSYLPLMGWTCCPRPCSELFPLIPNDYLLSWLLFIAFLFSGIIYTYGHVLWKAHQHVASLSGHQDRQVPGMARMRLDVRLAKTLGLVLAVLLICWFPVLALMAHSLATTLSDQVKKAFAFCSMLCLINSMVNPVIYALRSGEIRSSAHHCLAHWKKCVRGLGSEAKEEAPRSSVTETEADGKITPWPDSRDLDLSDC
Sequence of cannabinoid receptor type-1 (CB1) (P21554 whole entry): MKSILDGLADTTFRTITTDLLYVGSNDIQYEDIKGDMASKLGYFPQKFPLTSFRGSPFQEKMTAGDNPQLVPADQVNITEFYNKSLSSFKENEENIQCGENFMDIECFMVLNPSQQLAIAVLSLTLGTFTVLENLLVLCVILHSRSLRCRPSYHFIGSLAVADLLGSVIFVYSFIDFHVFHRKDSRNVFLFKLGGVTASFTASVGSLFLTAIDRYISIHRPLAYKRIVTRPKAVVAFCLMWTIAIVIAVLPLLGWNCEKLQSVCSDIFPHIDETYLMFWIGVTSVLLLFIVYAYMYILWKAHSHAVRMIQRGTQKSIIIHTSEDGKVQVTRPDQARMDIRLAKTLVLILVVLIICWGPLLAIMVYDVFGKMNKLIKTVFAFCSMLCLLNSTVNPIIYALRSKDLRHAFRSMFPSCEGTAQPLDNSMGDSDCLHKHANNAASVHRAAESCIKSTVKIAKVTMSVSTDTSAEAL

In the case of `C=C1CC/C=C(\C)CC[C@@H]2[C@@H]1CC2(C)C` (relative stereo) [caryophyllene, trans-(1R,9S)-8-Methylene-4,11,11-trimethylbicyclo[7.2.0]undec-4-ene], the maximal benefit noted (human patients [1]) is listed as at most 30 min, the “therapeutic onset of action” value (human patients [1]; generally) is listed as 10 to 15 min and the “action on CB2 receptors” value (CB2 receptors) is listed as “acts on CB2 receptors”. For the same molecule, the “binding to cannabinoid receptor type-1 (CB1)” value [2] was “does not bind”.

In the case of `CN1CCc2cccc3c2[C@H]1Cc1ccc(O)c(O)c1-3` [Apomorphine, apomorphine], the “neck range of motion and pain on adding topical apomorphine” value (human patients [3]; patient 14, torticollis with neck pain, apomorphine added after Cari-Derm) is reported as “improved further”, the “tremors, focus, talkativeness with added Apomorphine” value (human patients [3]; patient 20, Parkinson's disease, Apomorphine 5 mg after Cari-Derm) is reported as “Cari-Derm; further improved” and the “focus, spontaneity, gait after additional Apomorphine” value (human patients [3]; patient 23, poor focus, impulsivity, gait problems from Parkinson's, additional 5 mg Apomorphine after Cari-Derm) is reported as “further improvement noted”.

For `C=C(C)[C@@H]1CCC(C)=C[C@H]1c1c(O)cc(CCCCC)cc1O` [CBD, cannabidiol], the “patient's comparison of CBD with Cari-Derm for headache” value (human patients [3]; patient 35, chronic headaches and ADHD, uses topical CBD cream) was “CBD worked better”.

With `COC(=O)C(c1ccccc1)C1CCCCN1` (stereo not shown) [Ritalin, methylphenidate] the “agitation on earlier medication” value (human patients [4]) was “benefit; increased agitation”.

With “amphetamine, dextroamphetamine mixed salts [Adderall]” the “agitation on earlier medication” value (human patients [4]) was “benefit; increased agitation”.
